Laboratory results: patent publication US5783568A, “Methods for treating cancer and other cell proliferative diseases” (Sugen, Inc., priority 1994, dated 1998)
Entries after “also recorded” stand apart in the source; their conditions may differ.

Legend:
aFGF = target: T1, aFGF (Homo sapiens, UniProt P05230); settings: Mach et al., 1993; cited from earlier work
T1 construct: made in house; host or cells: E. coli

[1] = tested on: vascular endothelial cells; settings: cited from earlier work
[2] = tested on: FGFR1 extracellular domain; settings: Kan et al., 1993; cited from earlier work
[3] = tested on: sFGFR (soluble extracellular domain of FGFR2); assay: Binding of sFGFR to a heparin-sepharose column; design: species or system human
[4] = tested on: sFGFR (soluble extracellular domain of FGFR2 (bek)); assay: Isothermal titration calorimetry, aFGF binding to sFGFR; design: species or system human; settings: ITC
Source text: A plasmid encoding the extracellular, ligand-binding domain of human FGFR2 (residues 1-355) was constructed using standard oligonucleotide-directed mutagenesis (Amersham) to introduce a translational termination codon immediately prior to the beginning of the single transmembrane domain of the receptor (Dionne et al., 1990). BamHI and SacII restriction sites were introduced 3' to the new termination codon. An XbaI-SacII fragment was isolated from the replicative form (RF) of this M13 mutagenesis product, filled in using T4 DNA polymerase (Boehringer-Mannheim) and inserted into the SmaI site of the expression vector pCVN (Dionne et al., 1990). This expression vector, which contains both the neomycin resistance and the dihydrofolate reductase genes for selection and amplification, was transfected into CHO cells following published procedures. Wigler et al., 1979, Cell 16:777-785.
The binding of aFGF to sFGFR was studied using the technique of isothermal titration calorimetry (ITC). In this technique the heat liberated (or absorbed) upon binding is monitored as small aliquots of ligand are added sequentially to a solution of the receptor at known concentration, which is maintained at constant temperature. […]

FGFR2 (bek) [5] = assay: Tyrosine phosphorylation of FGFR2 in mutant (HSPG-deficient) CHO-pgsD-677 cells; assay type: cell-based, human; settings: 0.1 nM aFGF, 50 nM heparin, 5 min at 37° C.
Experimental: Cells were lysed and the receptor was immunoprecipitated with anti-FGFR2 antibodies. Samples were then analyzed by SDS-PAGE, transferred to nitrocellulose membranes, and tyrosine-phosphorylated proteins were detected by immunoblotting with anti-phosphotyrosine antibodies.
Wild-type CHO cells (CHO-K1), as well as heparin sulfate-deficient mutant cells (CHO-pgsD-677) which were kindly provided by Prof. J. Esko (Esko, 1991), were cultured in F-12 medium containing 7.5% FBS, 1% Ampicillin/Streptomycin and 1% glutamine. Both CHO cell lines were co-transfected with the wild-type human FGFR2 (bek) DNA in the expression vector pMJ30 (Dionne et al., 1990) (40 μg/10 cm dish) and the pSVneo resistant gene (0.5 mg/10 cm dish), using the calcium phosphate method (Chen and Okayama, 1987). Geneticin (1 mg/ml) resistant clones were screened for expression of the receptor by immunoprecipitation and immunoblotting analysis using anti-FGFR2 antibodies.
Wild-type and mutant CHO cells were starved overnight in F-12 medium containing 0.5% FBS, and stimulated with either 0.1 nM aFGF, 50 nM heparin, or both, for 5 min at 37° C. Cells were lysed, immunoprecipitated with anti-FGFR2 antibodies and analyzed by immunoblotting with anti-phosphotyrosine (anti-PTyr) antibodies.

FGFR1 (flg) = FGFR1 (flg) expressed in the two CHO cell lines; assay type: cell-based
FGFR2 (bek) [6] = assay: Cross-linking (BS^3) of FGF receptors in CHO-K1 cells, receptor dimerization; assay type: cell-based, human; settings: 0.1 nM aFGF, with or without 50 nM heparin
Experimental: Parental (lanes 1-4) and mutant CHO cells (lanes 5-8) were incubated with either 50 nM heparin (lanes 2 and 6), 0.1 nM aFGF (lanes 3 and 7), or both (lanes 4 and 8), for 1 hour at 4° C. Cells were then treated with the covalent cross-linking agent BS^3 for […] at room temperature, solubilized and immunoprecipitated with anti-FGFR2 antibodies. The samples were analyzed by a gradient SDS gel (6-8%), transferred to nitrocellulose membranes and probed with anti-FGFR2 antibodies. M--FGFR monomers; D--FGFR dimers.
Cells grown in fibronectin-coated dishes were starved overnight in F-12 medium containing 0.5% FBS. Cells were then washed with ice-cold binding medium (F-12 medium containing 20 mM Hepes (pH 7.5) and 0.1% BSA), and incubated for 1 hour at 4° C. with either aFGF (0.1 nM), heparin (50 nM), or both. The cells were then washed twice with cold PBS and incubated with 1 mM BS^3 in PBS for 20 minutes at room temperature. The cross-linking reaction was quenched by the addition of 50 mM Tris-HCl and 100 mM glycine for 10 min at room temperature. […]
Full-length FGFR2 was transfected into two CHO cell lines; wild-type CHO-K1, and the mutant CHO-pgsD-677, which is defective in heparin sulfate expression at its cell-surface (Esko, 1991). […] Cells were then lysed, and immunoprecipitated FGFR2 was analyzed by SDS-PAGE followed by immunoblotting with anti-FGFR2 antibodies.

T1 sequence (P05230 whole entry): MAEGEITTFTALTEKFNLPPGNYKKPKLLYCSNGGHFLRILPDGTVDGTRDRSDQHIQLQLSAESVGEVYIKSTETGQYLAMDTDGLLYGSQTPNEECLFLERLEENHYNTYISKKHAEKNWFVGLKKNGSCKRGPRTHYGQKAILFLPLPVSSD

Substance	binding to aFGF (aFGF)	mitogenic effect of aFGF on vascular endothelial cells [1]	binding to the extracellular domain of FGFR1 [2]	binding of sFGFR to heparin-sepharose column [3]	effect of heparin on the aFGF/sFGFR binding parameters ([4]; sFGFR titrated into mixture of heparin and aFGF)	FGFR2 autophosphorylation in mutant (heparin-deficient) CHO cells (FGFR2 (bek) [5])	Kd ([4]; single class of binding sites, mean ± SD of three experiments, no added heparin) [µM]	dimerization and autophosphorylation with FGFR1 (flg) (FGFR1 (flg))	receptor dimerization in CHO-K1 cells (FGFR2 (bek) [6])
heparin	relatively high affinity, in a multivalent fashion	potentiates the mitogenic effect of aFGF on vascular endothelial cells	binds to the extracellular domain of FGFR1	could not be detected	no effect upon the binding parameters could be detected; also recorded: does not detectably affect the interaction; also recorded: does not influence the affinity of the aFGF/sFGFR interaction	required for significant levels of aFGF-induced FGFR2 autophosphorylation; also recorded: the addition of heparin is required for aFGF to activate FGFR	–	–	–
aFGF: aFGF was expressed in E. coli and purified by binding to a heparin-sepharose column	–	–	–	–	–	–	0.528 ± 0.173	Identical results	could induce receptor dimerization regardless of the presence of exogenous heparin
